In general, AC50 refers to the midpoint of the concentration-response curve, whichever way the signal moves.

Results on 21 compounds are retold here after PubChem BioAssay AID977630 (Broad Institute, 2014).

SMILES strings stand for the structures. Results filed as inconclusive are left out. Active and inactive are the calls of the source.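 The calls were made as follows: active = Normal-ribosome green reporter loss at least double humanized-ribosome red reporter loss, with overall culture growth inhibition under a set limit; inconclusive = no clear call, values can overlap the other calls; inactive = the rest.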 Some results are limits rather than exact numbers.

Test [1] has as its system E. coli humanized H38 RFP strain growth, mixed culture, 24 h. Kind of test: growth inhibition of wild-type GFP E. coli, H38-humanized RFP comparator, dose response, H38 mutant RFP vs wild-type GFP, cherry-pick (AID 977630).
Test [2] has as its system E. coli wild-type GFP growth, mixed culture, 24 h. Described as above.
Setting [3] is: E. coli mixed culture total OD600 growth, 24 h.

Regarding `COc1cc(NC(=O)c2ccc(Cl)cc2)c(OC)cc1NC(=O)CN1CCCCC1`, the results for the AC50 in test [1], in test [2] and in test [2] (setting [3]) were more than 100 µM, > 100 µM (inactive) and more than 100 µM, respectively.

As to `CC(C)(C)S(=O)(=O)Cc1nc(-c2ccc(Cl)c(Cl)c2)cs1`, the AC50 in test [1] and in test [2] (setting [3]) was more than 100 µM each time.

As for `Cc1cc(SCC(=O)OCC(=O)NCC2CCCO2)c(C)cc1Br` (stereo not drawn), the AC50 in test [1] is more than 100 µM; in test [2] it was > 100 µM (inactive).

As to `Nc1ncncc1-c1ccc2ccccc2c1`, the AC50 in test [1] was more than 100 µM; in test [2], > 100 µM (inactive).

With `Nc1nc(=S)ss1`, the AC50 in test [1] is less than 0.6 µM; in test [2], > 100 µM (inactive); in test [2] (setting [3]), more than 100 µM.

For the compound `COc1ccc(-c2nn(-c3ccccc3C)cc2CNCc2cccnc2)cc1F`, the AC50 in test [1] and in test [2] (setting [3]) was more than 100 µM throughout.

In the case of `O=C(CCCSc1nc2ccccc2s1)NCc1ccc2c(c1)OCO2`, the AC50 in test [1] was more than 100 µM; in test [2], > 100 µM (inactive); in test [2] (setting [3]), 43.8 µM.

With `CN(C(=O)COc1ccccc1C(=O)NCCOc1ccccc1)c1ccccc1`, the AC50 is 44.2 µM in test [1] and > 100 µM (inactive) in test [2].

As for `COc1ccc(OC2C(=O)N(Cc3ccc4c(c3)OCO4)C2c2cccs2)cc1` (stereo not drawn), the concentration at half-maximal activity (AC50) in test [1] was 11.5 µM; in test [2], > 100 µM (inactive).

Turning to `COc1cc(OC)cc(C(=O)N[C@H](C(=O)OCC(=O)Nc2ccc(F)c(F)c2F)C(C)C)c1`, the concentration at half-maximal activity (AC50) in test [1] is more than 100 µM; in test [2] it was > 100 µM (inactive).

As for `CCOC(=O)[C@]12Cc3ccccc3[C@H]1N(C)C(=O)c1cc(OC)ccc12`, the AC50 is 48.7 µM in test [1], > 100 µM (inactive) in test [2] and 34.2 µM in test [2] (setting [3]).

As for `CC(C)(C)c1ccc(S(=O)(=O)NCc2ccc(C(=O)NCc3ccccn3)cc2)cc1`, the AC50 in test [1] was 49.9 µM; in test [2], > 100 µM (inactive); in test [2] (setting [3]) it was more than 100 µM.

Regarding `Cc1ccccc1-c1nc(CS(=O)(=O)CC(=O)N2CCCCC2)c(C)o1`, the values for the half-maximal activity concentration (AC50) in test [1] and in test [2] (setting [3]) were more than 100 µM and 45.5 µM, respectively.

For the compound `COc1ccc(NS(=O)(=O)c2ccc(Cl)c(NC(=O)c3ccccc3F)c2)cc1`, the half-maximal activity concentration (AC50) in test [1] was more than 100 µM; in test [2], > 100 µM (inactive).

Regarding `O=C(NCc1ccccc1)c1ccc(-c2cn[nH]c2)c2ccoc12`, the half-maximal activity concentration (AC50) in test [1] is more than 100 µM; in test [2], > 100 µM (inactive).

On to `CS(=O)(=O)c1ccc(Cl)c(NC(=O)COC(=O)c2c(Cl)cccc2Cl)c1`, for which the AC50 in test [1] is more than 100 µM; in test [2], > 100 µM (inactive); in test [2] (setting [3]), more than 100 µM.

As to `CCc1cc2ccc(OC)cc2nc1SCC(=O)N1CCN(C(=O)c2ccco2)CC1`, the AC50 was more than 100 µM in test [1] and > 100 µM (inactive) in test [2].

For `CC(C)C[C@H]1COc2cc(Br)ccc2S(=O)(=O)N1`, the AC50 in test [1] is 47 µM; in test [2] it was > 100 µM (inactive).

Take `COc1cc(NC(=O)C(c2ccccc2)c2ccccc2)c(C(=O)O)cc1OC`: the figures for the AC50 in test [1] and in test [2] were 22.3 µM and > 100 µM (inactive), respectively.

`O=C1c2ccccc2NC(c2ccc(-c3cccc([N+](=O)[O-])c3)o2)N1O` (stereo not drawn): the half-maximal activity concentration (AC50) in test [1] is 7.43 µM; in test [2], > 100 µM (inactive).

Take `CCOC(=O)c1csc(NC(=O)CC2CCCC2)n1`: the AC50 in test [1] is 51.7 µM; in test [2], > 100 µM (inactive).
